Assay results: US8541573B2, “Substituted sulfonamide compounds” (Gruenenthal GmbH, priority 2008, dated 2013)

Assays:
[1] = target: T1, B1R of rats (Rattus norvegicus, UniProt P97583); assay: Functional investigation on the bradykinin 1 receptor (B1R), cell-based fluorescent calcium-mobilization assay (FLIPR/Novostar), rat; conditions: 10 μM test substance; CHO K1 cells stably transfected with rat B1R gene; agonist Des-Arg9-bradykinin at EC80; % inhibition compared with maximum achievable inhibition; read-out: B1R antagonism, rat [10 μM] % inhibition
T1 construct: expressed in transfected cells; host or cells: CHO K1 cells
T1 sequence (P97583 1-337): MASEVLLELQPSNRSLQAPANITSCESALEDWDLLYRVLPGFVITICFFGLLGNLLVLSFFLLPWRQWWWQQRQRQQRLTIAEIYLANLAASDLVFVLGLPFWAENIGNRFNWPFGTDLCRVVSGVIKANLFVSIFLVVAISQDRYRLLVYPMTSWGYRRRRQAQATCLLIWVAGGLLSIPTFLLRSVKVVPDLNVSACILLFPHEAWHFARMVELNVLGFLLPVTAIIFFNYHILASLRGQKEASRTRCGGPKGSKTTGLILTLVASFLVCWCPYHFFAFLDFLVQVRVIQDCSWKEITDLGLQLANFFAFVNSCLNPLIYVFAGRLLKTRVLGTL
Description: (§1) The agonistic or antagonistic action of substances can be quantified on the bradykinin 1 receptor (B1R) of the human and rat species with ectopically expressing cell lines (CHO K1 cells) and with the aid of a Ca^2+-sensitive dyestuff (Fluo-4) in a fluorescent imaging plate reader (FLIPR). The figure in % activation is based on the Ca^2+ signal after addition of Lys-Des-Arg^9-bradykinin (0.5 nM) or Des-Arg^9-bradykinin (100 nM). Antagonists lead to a suppression of the Ca^2+ inflow after addition of the agonist. % inhibition compared with the maximum achievable inhibition is stated.
(§2) The agonistic or antagonistic action of substances can be determined on the bradykinin 1 receptor (B1R) of humans and rats by means of a cell-based flourescent calcium-mobilization assay. According to this assay agonist-induced increase of intracellular free Ca^2+ is quantified by means of a Ca^2+-sensitive dye (Fluo-4 type, Molecular Probes Europe BV, Leiden, Netherlands), in a Fluorescent Imaging Plate Reader (FLIPR, Molecular Devices, Sunnyvale, USA) and/or the Novostar (BMG Labtech GmbH, Offenburg, Germany).
(§3) Chinese hamster ovary cells (CHO K1 cells), which are stably transfected with the human B1R gene (hB1R cells) or with the B1R gene of rats (rB1R cells), are used. For functional investigations these cells are seeded into black 96-well plates with a clear bottom (BD Biosciences, Heidelberg, Germany or Greiner, Frickenhausen, Germany) in a density of 20,000-35,000 cells/well. The cells are incubated overnight in a humidified atmosphere at 37° C. and 5% CO2 in culture medium (hB1R cells: Nutrient Mixture Ham's F12, Gibco Invitrogen GmbH, Karlsruhe, Germany or DMEM, Sigma-Aldrich, Taufkirchen, Germany; rB1R cells: D-MEM/F12, Gibco Invitrogen GmbH, Karlsruhe, Germany) with 10 vol. % FBS (foetal bovine serum, Gibco Invitrogen GmbH, Karlsruhe, Germany).
(§4) On the following day the cells are loaded with the Ca^2+-sensitive dye Fluo-4-AM (Molecular Probes Europe BV, Leiden, Netherlands):
(§5) Method A: The medium of the cells is removed and cell plates are incubated with loading solution, which contains 2.13 μM Fluo-4-AM, 2.5 mM probenecid (Sigma-Aldrich, Taufkirchen, Germany), and 10 mM HEPES (Sigma-Aldrich, Taufkirchen, Germany) in HBSS buffer (Hank's buffered saline solution, Gibco Invitrogen GmbH, Karlsruhe, Germany) for 60 minutes at 37° C. After the plates are washed twice with HBSS buffer, HBSS buffer supplemented 0.1% BSA (bovine serum albumin; Sigma-Aldrich, Taufkirchen, Germany), 5.6 mM glucose and 0.05% gelatine (Merck KGaA, Darmstadt, Germany) is added. Cell plates are incubated for at least 20 minutes in the dark at room temperature before they are used for the Ca^2+ measurement in the FLIPR or Novostar.
(§6) Method B: The plates are washed with buffer A (15 mM HEPES, 80 mM NaCl, 5 mM KCl, 1.2 mM CaCl2, 0.7 mM MgSO4, 2 mg/ml glucose, 2.5 mM probenecid) and subsequently loaded with buffer A containing 2.4 μM Fluo-4-AM and 0.025% pluronic F127 (Sigma-Aldrich, Taufkirchen, Germany) for 60 minutes at 37° C. Cell plates are washed twice with buffer A. Then, buffer A supplemented with 0.05% BSA and 0.05% gelatine is added and cell plates are incubated in the dark at room temperature for at least 20 minutes before measurement in the FLIPR or Novostar is started.
(§7) The Ca^2+-dependent fluorescence is measured both before and after the addition of substances (λex=488 nm, λem=540 nm). For quantification of the effect the highest fluorescence intensity (FC, fluorescence counts) over time is given. The FLIPR protocol consists of two substance additions, done within the instrument while continuously monitoring the Ca^2+-dependent fluorescence at 540 nm. When the Novostar was used, one addition had to be done outside the instrument. Test substances (10 μM) are initially pipetted onto the cells and the intracellular Ca^2+ rise is compared with the control (hB1R: Lys-Des-Arg9-bradykinin>=50 nM; rB1R: Des-Arg9-bradykinin>=1 μM). […]

[2] = target: T2, human B1R (Homo sapiens, UniProt P46663); assay: Functional investigation on the bradykinin 1 receptor (B1R), cell-based fluorescent calcium-mobilization assay (FLIPR/Novostar), human; conditions: 10 μM test substance; CHO K1 cells stably transfected with human B1R gene; agonist Lys-Des-Arg9-bradykinin at EC80; % inhibition compared with maximum achievable inhibition; read-out: B1R antagonism, human [10 μM] % inhibition
T2 construct: expressed in transfected cells; host or cells: CHO K1 cells
T2 sequence (P46663 1-353): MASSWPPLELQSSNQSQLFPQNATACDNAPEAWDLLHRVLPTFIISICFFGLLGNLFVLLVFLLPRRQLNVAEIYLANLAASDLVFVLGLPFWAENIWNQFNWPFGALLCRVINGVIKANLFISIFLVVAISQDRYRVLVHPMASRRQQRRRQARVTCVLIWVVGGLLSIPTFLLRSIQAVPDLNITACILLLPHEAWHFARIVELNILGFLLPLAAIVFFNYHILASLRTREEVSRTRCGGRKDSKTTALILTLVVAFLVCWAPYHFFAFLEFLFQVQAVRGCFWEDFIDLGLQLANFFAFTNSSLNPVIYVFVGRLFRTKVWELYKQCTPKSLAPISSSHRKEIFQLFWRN
Description: as §1, §2, §3, §4, §5, §6, §7

COc1cc(C)c(S(=O)(=O)N(CCOCC(=O)N2CCC(CNC(C)=O)(N3CCN(c4ccncc4)CC3)CC2)C2CC2)c(C)c1 [Example 46, N-((1-(2-(2-(N-Cyclopropyl-4-methoxy-2,6-dimethylphenylsulfonamido)ethoxy)acetyl)-4-(4-(pyridin-4-yl)piperazin-1-yl)piperidin-4-yl)methyl)acetamide]
inhibition at 10 µM [1]: 101%
inhibition at 10 µM [2]: 100%

COc1cc(C)c(S(=O)(=O)N2CCCCC2COCC(=O)N2CCC(CNC(=O)c3ccncc3)(N3CCN(C)CC3)CC2)c(C)c1 (stereo not drawn) [Example 28, N-((1-(2-((1-(4-methoxy-2,6-dimethylphenylsulfonyl)piperidin-2-yl)methoxy)acetyl)-4-(4-methylpiperazin-1-yl)piperidin-4-yl)methyl)-isonicotinamide]
inhibition at 10 µM [1]: 102%
inhibition at 10 µM [2]: 102%

CN1CCN(C2(CNC(=O)c3ccccn3)CCN(C(=O)COCC3CCc4ccccc4N3S(=O)(=O)c3ccc(Cl)c(Cl)c3)CC2)CC1 (stereo not drawn) [Example 20, N-((1-(2-((1-(3,4-dichlorophenylsulfonyl)-1,2,3,4-tetrahydroquinolin-2-yl)-methoxy)acetyl)-4-(4-methylpiperazin-1-yl)piperidin-4-yl)methyl)picolinamide]
inhibition at 10 µM [1]: 60%
inhibition at 10 µM [2]: 91%

CC(=O)NCC1(N2CCN(c3ccncc3)CC2)CCN(C(=O)CC(NS(=O)(=O)c2ccc3ccccc3c2)c2ccccc2)CC1 (stereo not drawn) [Example 14, N-((1-(3-(naphthalene-2-sulfonamido)-3-phenylpropanoyl)-4-(4-(pyridin-4-yl)piperazin-1-yl)piperidin-4-yl)methyl)acetamide]
inhibition at 10 µM [1]: 82%
inhibition at 10 µM [2]: 100%

COc1cc(C)c(S(=O)(=O)N2CCCCC2COCCC(=O)N2CCC(CNC(=O)c3ccncc3)(N3CCN(C)CC3)CC2)c(C)c1 (stereo not drawn) [Example 52, N-((1-(3-((1-(4-Methoxy-2,6-dimethylphenylsulfonyl)piperidin-2-yl)methoxy)propanoyl)-4-(4-methylpiperazin-1-yl)piperidin-4-yl)methyl)isonicotinamide]
inhibition at 10 µM [1]: 102%
inhibition at 10 µM [2]: 100%

COc1cc(C)c(S(=O)(=O)N2CCCCC2COCC(=O)N2CCC(CNC(=O)c3ccccn3)(N3CCN(C)CC3)CC2)c(C)c1 (stereo not drawn) [Example 21, N-((1-(2-((1-(4-methoxy-2,6-dimethylphenylsulfonyl)piperidin-2-yl)methoxy)acetyl)-4-(4-methylpiperazin-1-yl)piperidin-4-yl)methyl)picolinamide]
inhibition at 10 µM [1]: 101%
inhibition at 10 µM [2]: 103%

COc1cc(C)c(S(=O)(=O)N(CCOCC(=O)N2CCC(CNC(=O)c3ccncc3)(N3CCN(C4CC4)CC3)CC2)C2CC2)c(C)c1 [Example 44, N-((1-(2-(2-(N-Cyclopropyl-4-methoxy-2,6-dimethylphenylsulfonamido)ethoxy)acetyl)-4-(4-cyclopropylpiperazin-1-yl)piperidin-4-yl)methyl)isonicotinamide]
inhibition at 10 µM [1]: 102%
inhibition at 10 µM [2]: 100%

CN1CCN(C2(CNC(=O)Cc3ccccc3)CCN(C(=O)COCC3CCc4ccccc4N3S(=O)(=O)c3ccc(Cl)c(Cl)c3)CC2)CC1 (stereo not drawn) [Example 13, N-((1-(2-((1-(3,4-dichlorophenylsulfonyl)-1,2,3,4-tetrahydroquinolin-2-yl)methoxy)acetyl)-4-(4-methylpiperazin-1-yl)piperidin-4-yl)methyl)-2-phenylacetamide]
inhibition at 10 µM [1]: 52%
inhibition at 10 µM [2]: 104%

CC(=O)NCC1(N2CCN(C)CC2)CCN(C(=O)CC(NS(=O)(=O)c2ccc3ccccc3c2)c2ccccc2)CC1 (stereo not drawn) [Example 35, N-((4-(4-methylpiperazin-1-yl)-1-(3-(naphthalene-2-sulfonamido)-3-phenylpropanoyl)piperidin-4-yl)methyl)acetamide]
inhibition at 10 µM [1]: 102%
inhibition at 10 µM [2]: 89%
